Among the test systems are 786-0 renal; A549 NSCLC; HL-60(TB) leukemia; HOP-62 NSCLC; KM12 colon; NCI-H226 lung; NCI-H460 lung; SF-295 CNS; MDA-MB-231 breast.
Experiment in all cases: inhibition of tumour cell growth, NCI panel, 48 h

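Cells were grown in 96-well plates and exposed to each compound for 48 hours at five concentrations; endpoints were interpolated linearly between bracketing concentrations, or set to the highest concentration if not reached. GI50 is the concentration that inhibits growth by half. At the TGI there is no net growth.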

Regarding `COc1ccc(NC(=O)/C(=C/c2ccccc2)C(C)=O)cc1`, the TGI with 786-0 renal turned out to be 28.6 µM; in the assay with A549 NSCLC, 54.2 µM; in the assay on HL-60(TB) leukemia it was 17.7 µM; in the assay with HOP-62 NSCLC, 32.3 µM; in the assay with KM12 colon, 27.5 µM; in the assay on NCI-H226 lung it was 96.9 µM. In addition, the TGI with NCI-H460 lung was 62.5 µM; in the assay with SF-295 CNS it was 28.6 µM.

Consider `Cc1ccccc1NC(=O)c1cc(-c2ccc([N+](=O)[O-])cc2)nc(=S)[nH]1`, for which the TGI in the assay on 786-0 renal, with A549 NSCLC, in the assay on HL-60(TB) leukemia, in the assay on HOP-62 NSCLC, with KM12 colon and in the assay on NCI-H226 lung was more than 100 µM throughout. Besides, the TGI in the assay on NCI-H460 lung and in the assay with SF-295 CNS was more than 100 µM each time.

Regarding `O=C(O)c1ccc(NCn2nc(-c3ccccc3O)oc2=S)cc1`, the GI50 with 786-0 renal was 39.7 µM; in the assay on A549 NSCLC, 42.3 µM; in the assay with HL-60(TB) leukemia, 62.8 µM; in the assay on HOP-62 NSCLC, 47.2 µM; with KM12 colon, more than 100 µM; in the assay with MDA-MB-231 breast, 16.1 µM. For the same compound, the GI50 in the assay on NCI-H226 lung is more than 100 µM; in the assay on NCI-H460 lung, 40.5 µM; in the assay on SF-295 CNS, more than 100 µM. Further, the TGI with 786-0 renal was more than 100 µM; with A549 NSCLC it was more than 100 µM; in the assay with HL-60(TB) leukemia, more than 100 µM; with HOP-62 NSCLC, more than 100 µM; with KM12 colon, more than 100 µM; in the assay on MDA-MB-231 breast, 58.5 µM. For the same compound, the TGI in the assay with NCI-H226 lung, in the assay with NCI-H460 lung and in the assay with SF-295 CNS was more than 100 µM in each case.

`N/N=C1\C(=O)N(C2CCCCCC2)C(=O)C1C(=O)NC1CCCCCC1` (stereo not drawn): the TGI with 786-0 renal was more than 100 µM; with A549 NSCLC, more than 100 µM; in the assay with HL-60(TB) leukemia, 45.1 µM; in the assay on HOP-62 NSCLC, more than 10 µM; in the assay on KM12 colon, more than 100 µM; in the assay on NCI-H460 lung, more than 100 µM. The TGI in the assay on SF-295 CNS is more than 100 µM.

For `O=C(Cc1nc2ccccc2c(=O)n1-c1ccccc1Cl)c1ccncc1`, the TGI with 786-0 renal, in the assay with A549 NSCLC, with HL-60(TB) leukemia, in the assay on HOP-62 NSCLC, in the assay with KM12 colon and in the assay with NCI-H226 lung was more than 100 µM each time. Further, the TGI in the assay with NCI-H460 lung and with SF-295 CNS was more than 100 µM each time.

Take `N#Cc1ccccc1C(Cl)(Cl)c1cnccn1`: the TGI in the assay on 786-0 renal was 32.3 µM; with A549 NSCLC, more than 100 µM; in the assay with HL-60(TB) leukemia, 70.2 µM; in the assay on HOP-62 NSCLC, more than 100 µM; in the assay on KM12 colon, more than 100 µM; with NCI-H226 lung, more than 100 µM. For the same compound, the TGI with NCI-H460 lung and in the assay on SF-295 CNS was more than 100 µM in each case.

On to `CCC[CH2][Sn]([Cl])([Cl])[CH2]CCC`, for which the GI50 with 786-0 renal was 0.714 µM; in the assay on A549 NSCLC, 2.65 µM; in the assay on HL-60(TB) leukemia, 0.275 µM; in the assay on HOP-62 NSCLC, 1.92 µM; in the assay on KM12 colon it was 1.35 µM; in the assay with NCI-H226 lung, 1.82 µM. The GI50 in the assay with NCI-H460 lung was 1.75 µM; with SF-295 CNS, 1.53 µM. Further, the TGI was found to be 2.04 µM in the assay with 786-0 renal; 8.25 µM in the assay on A549 NSCLC; 1.02 µM in the assay with HL-60(TB) leukemia; 3.36 µM in the assay with HOP-62 NSCLC; 2.81 µM with KM12 colon; 5.01 µM in the assay on NCI-H226 lung. The TGI with NCI-H460 lung worked out at 3.72 µM; in the assay on SF-295 CNS, 2.92 µM.

With `CC1=C(C(=O)CC(=O)C(=O)Nc2cc(C)ccc2C)Sc2ccccc2N1`, the TGI in the assay on 786-0 renal, in the assay on A549 NSCLC, with HL-60(TB) leukemia, in the assay with HOP-62 NSCLC, in the assay with KM12 colon and with NCI-H226 lung was more than 100 µM throughout. In the assay on SF-295 CNS, this compound came in with a TGI of more than 100 µM.

Turning to `CC(C)(C)c1cc(C(O)(C(F)(F)F)C(F)(F)F)c2c(c1)C(C(F)(F)F)(C(F)(F)F)OC(C)(C(C)(C)C)N2` (stereo not drawn), the TGI with 786-0 renal is 11.6 µM; with A549 NSCLC, 33.4 µM; in the assay with KM12 colon it was more than 100 µM; with NCI-H226 lung, 8.53 µM; with NCI-H460 lung, 9.25 µM; in the assay on SF-295 CNS it was 16.9 µM.

As to `COC/C=C\COC`, the TGI in the assay with 786-0 renal, in the assay on A549 NSCLC, with HL-60(TB) leukemia, in the assay on HOP-62 NSCLC, with KM12 colon and in the assay on NCI-H226 lung was more than 100 µM in each case. Besides, the TGI in the assay on NCI-H460 lung and with SF-295 CNS was more than 100 µM in each case.

Regarding `CCOC(=O)C(=O)Nc1ccccc1C`, the TGI in the assay with 786-0 renal, in the assay with A549 NSCLC, in the assay with HL-60(TB) leukemia, with HOP-62 NSCLC, with NCI-H226 lung and with NCI-H460 lung was more than 100 µM throughout.

Take `CC(Oc1ccc2c(-c3ccccc3)cc(=O)oc2c1)C(=O)O` (stereo not drawn): the TGI with 786-0 renal, in the assay with A549 NSCLC, with HL-60(TB) leukemia, in the assay on HOP-62 NSCLC, with KM12 colon and with NCI-H226 lung was more than 100 µM each time. The TGI in the assay with NCI-H460 lung and in the assay on SF-295 CNS was more than 100 µM throughout.

As for `CCNC(=O)COc1ccc(Br)cc1Br`, the TGI in the assay with 786-0 renal, in the assay with A549 NSCLC, in the assay on HL-60(TB) leukemia, in the assay with HOP-62 NSCLC, in the assay with KM12 colon and with NCI-H226 lung was more than 100 µM throughout. Besides, the TGI with NCI-H460 lung and in the assay with SF-295 CNS was more than 100 µM in each case.

As to `CC1=C[C@H]2c3c([nH]c4ccccc34)C(c3c[nH]c4ccccc34)[C@H]2CC1` (stereo partly drawn), the TGI with 786-0 renal was determined as 11.2 µM; in the assay with A549 NSCLC, 26.4 µM; in the assay on HL-60(TB) leukemia, 17.6 µM; in the assay on NCI-H226 lung it was 27.7 µM; in the assay on NCI-H460 lung it was 8.21 µM.

Take `C#Cc1cccc(N2C(=O)c3c(c(-c4ccccc4)c(-c4ccc(Cc5ccc(-c6c(-c7ccccc7)c7c(c(-c8ccccc8)c6-c6ccccc6)C(=O)N(c6cccc(C#C)c6)C7=O)cc5)cc4)c(-c4ccccc4)c3-c3ccccc3)C2=O)c1`: the TGI in the assay with 786-0 renal, in the assay on A549 NSCLC, in the assay with HL-60(TB) leukemia, in the assay with HOP-62 NSCLC, in the assay on KM12 colon and in the assay on NCI-H460 lung was more than 100 µM in each case. Also, the TGI with SF-295 CNS was more than 100 µM.

(Values after PubChem BioAssay (NCI).)
